Results taken from US20150057344A1, “PELTATIN FOR THE TREATMENT OF CHRONIC INFLAMMATORY DISORDERS” (priority 2012, published 2015).

Key:
PPARγ = assay: hPPARg reporter bioassay (Gal4-hPPAR / UAS-luciferase) in HeLa cells; type: cell-based; conditions: human HeLa cells, dose response
Text: (§1) In more detail, when PPARs fix their ligands they are able to shuttle from cytoplasm to the nucleus of HeLa cells. Then, PPARs heterodimerize with co-receptors called Retinoid-X-Receptors (RXR). Heterodimeric transcription factors PPAR/RXR are responsible for PPARs-mediated transcriptional program. In this system, hPPARs are fused to Gal4. Gal4 is a yeast transcription activator which specifically binds a Gal4 responsive element so-called Upstream Activation Sequence (UAS)— this short section in a promoter region strongly activates gene transcription. Therefore, cotransfection of Gal4-hPPARs with UAS-luciferase constructs allows identification hPPARs agonists. Agonists will stimulate luciferase transcription resulting in the formation of a functional enzyme that converts substrate to detectable signal by a chemiluminescent reaction.
(§2) The assays detect binding of a ligand to the hPPAR of interest by directly measuring luciferase activity. When PPARs fixe their ligands they are able to shuttle from cytoplasm to the nucleus of HeLa cells. Then, PPARs heterodimerize with co-receptors called Retinoid-X-Receptors (RXR). […]
(§3) An edible plant fraction library was tested for PPARs agonist activity and toxicity. Then relevant plant fractions were further analyzed and bioactive(s) characterized and validated with the same hPPARa, hPPARg or hPPARd reporter bioassays. […]

PPARα = assay: hPPARa reporter bioassay (Gal4-hPPAR / UAS-luciferase) in HeLa cells; type: cell-based; conditions: human HeLa cells, dose response
Text: as §1, §2, §3

HeLa cells = assay: Cellular toxicity, standard method, compared to untreated cells; type: cell-based, human; conditions: up to highest dose used
Procedure: The AC50 (upper part of the insert) and the maximum % activation (lower part of the insert) are given. Cellular toxicity was also assessed with standard method compared to untreated cells and shown in % of toxicity.
An edible plant fraction library was tested for PPARs agonist activity and toxicity. Then relevant plant fractions were further analyzed and bioactive(s) characterized and validated with the same hPPARa, hPPARg or hPPARd reporter bioassays. The reporter bioassay we used in order to identify anti-inflammatory plant properties targeted activation of human PPARs in human HeLa cells (as described in the FIG. 1). All isolated bioactives were tested in a dose response manner in duplicate. Assays were repeated 3-4 times. Shown are mean values obtained. Therefore specificity (for all the three known human PPAR receptors namely PPARα, PPARd and PPARg) and efficacy (full agonist i.e. % maximal activity >100% or partial agonist i.e. % maximal activity <100%) were tested (FIG. 2-4).

## COc1cc([C@@H]2c3cc4c(cc3[C@H](O)[C@H]3COC(=O)[C@H]23)OCO4)cc(OC)c1OC [podophyllotoxin]
PPARγ
  agonistic activity on PPARγ: dual agonistic activity
PPARα
  agonistic activity on PPARα: dual agonistic activity

## COc1cc([C@@H]2c3cc4c(c(O)c3C[C@H]3COC(=O)[C@@H]32)OCO4)cc(OC)c1OC [β-peltatin]
PPARγ
  agonistic activity on PPARγ: dual agonistic activity
HeLa cells; FIG. 2, alongside PPARα activation dose-response
  cellular toxicity (% of toxicity): no toxicity was observed
HeLa cells; FIG. 3, alongside PPARg activation dose-response
  cellular toxicity (% of toxicity): no toxicity was observed
HeLa cells; FIG. 4, alongside PPARd activation dose-response
  cellular toxicity (% of toxicity): no toxicity was observed
PPARα
  agonistic activity on PPARα: dual agonistic activity
